Reference: patent publication US20230256111A1, “C[…] ADC OR AN AOC COMPRISING A VHH, AND A SAPONIN OR A LIGAND-SAPONIN CONJUGATE” (SAPREME TECHNOLOGIES B.V., priority 2020, published 2023)

Assays:
Assay in all cases: Cell viability (MTS) assay, targeted toxin mediated cell killing
Assay type in all cases: cell-based, human
Settings in all cases: read-out: IC50, 1500 nM SO1861, toxin or toxin conjugate titrated + 1500 nM unconjugated SO1861
[1] = system: JIMT-1 cells
Protocol: (§1) Cells were seeded in a 96 well plate at 5.000-10.000 c/w in 100 μL/well and incubated overnight at 37° C. […] The media was removed from the cell culture plate and replaced by 180 μL culture media, followed by the addition of 20 μL treatment-mix/well. […] In the case that endosomal acidification inhibitors (chloroquine (Sigma Aldrich) or bafilomycin A1 (Enzo Life Sciences)) were used, the cell culture media in step 1 of treatment was replaced by 180 μL media containing 1 pM chloroquine or 0.2 pM bafilomycin A1. The plate was incubated for 1 hour at 37° C., before the 10× treatment-mix samples were added.
(§2) After treatment the cells were incubated for 72 hr at 37° C. before the cell viability was determined by a MTS-assay, performed according to the manufacturer's instruction (CellTiter 96® AQueous One Solution Cell Proliferation Assay, Promega). Briefly, the MTS solution was diluted 20× in DMEM without phenol red (PAN-Biotech GmbH) supplemented with 10% FBS (PAN-Biotech GmbH). […] Subsequently, the optical density at 492 nm was measured on a Thermo Scientific Multiskan FC plate reader (Thermo Scientific). For quantification the background signal of ‘medium only’ wells was subtracted from all other wells, before the ratio of untreated/treated cells was calculated, by dividing the background corrected signal of untreated wells over the background corrected signal of the treated wells.

[2] = system: HeLa cells
Protocol: as §1, §2

[3] = system: CaSki cells
Protocol: as §1, §2

Saporin
IC50 [1]: 0.03 nM
IC50 [2]: 0.03 nM
IC50 [3]: 0.015 nM
